Article PMC9331544, “Molecular Physicochemical Properties of Selected Pesticides as Predictive Factors for Oxidative Stress and Apoptosis-Dependent Cell Death in Caco-2 and HepG2 Cells” (International Journal of Molecular Sciences, 2022)
In brackets after ≈: the same amount, converted by molar mass. Where two headings read alike, the source gives them in different places.

Tests used:
Caco-2 cells [1] = experiment: Intracellular ROS content, DCFDA, flow cytometry; type: cell-based, human; settings: 24 h
Procedure: (§1) To assess pesticides-induced oxidative stress, the intracellular content in reactive oxygen species (ROS), content in glutathione (GSH), and lipid peroxidation was quantified by flow cytometry, following the methods described by Domínguez-Perles, et al. and Queiroz, et al.. Briefly, to assess ROS content, cells re-suspended in PBS (from Section 3.3.1) were centrifuged (5 min, 3000 rpm, bench micro-centrifuge) and, after eliminating the supernatant, 200 μL of 10 µM DCFDA solution (prepared in FBS-free DMEM) was added to each sample. After a 45 min incubation at 37 °C (in the dark, in an incubator), cells were centrifuged to remove excess of probe and re-suspended in PBS. Finally, 5 μL of propidium iodide (PI; 50 μg/mL) was added to each sample 3 min before flow cytometry acquisition.

HepG2 cells [2] = experiment: Intracellular ROS content, DCFDA, flow cytometry; type: cell-based, human; settings: HepG2, 75 μM, 24 h
Procedure: as §1

Caco-2 cells [3] = experiment: Glutathione (GSH) content, Mercury Orange, flow cytometry; type: cell-based, human
Procedure: (§2) To assess GSH content, cells re-suspended in PBS (see Section 3.3.1) were incubated with 40 μM Mercury Orange (1-(4-chloromercuryphenyl-azo-2-naphtol) for 5 min (in the dark, room temperature), as described by du Plessis, et al..

HepG2 cells [4] = experiment: as above; type: cell-based, human
Procedure: as §2

Caco-2 cells [5] = settings: for Caco-2 FL2/FL1 ratio: mean ± SD
Source text: (§3) Given the role of mitochondria in both oxidative stress and cell death (apoptosis), we evaluated the mitochondrial membrane potential (MMP) using the JC-1 probe (see methods for details). This probe accumulates in the mitochondria in the form of J-aggregates when in normal mitochondrial conditions (polarized) and presents red fluorescence. By contrast, in unhealthy cells, when depolarization occurs, JC-1 enters the mitochondria in lower concentrations forming monomers inducing a fluorescence shift to green fluorescence, thus the loss of MMP is observed through flow cytometry as a reduction in red (FL2) and an increase in green (FL1) fluorescence, or as a reduction in red/green (FL2/FL1) fluorescence ratio [45, 46].
(§4) Pesticide-induced oxidative stress and apoptosis/necrosis events were analysed by flow cytometry. For this, one colour and two-colour flow cytometry assays were performed, using a BD Accuri™ C6 cytometer (Franklin Lakes, NJ, USA) equipment for data acquisition. Each assay was performed at least in triplicate (n = 3) and 5000 gated events were collected from each sample. Data analysis was performed using BD Accuri™ C6 Software, version 1.0.264.21 supplied by Becton Dickinson (Franklin Lakes, NJ, USA).
(§5) Caco-2 and HepG2 cells (handled as described in Section 3.2.1) were seeded in 12-well microplates (at 5 × 10^4 cells/mL density; 750 µL/well), and allowed to adhere and stabilize for 48 h in the incubator. […] Negative control cells (non-exposed cells) were included in each assay. After a 24 h incubation with test solutions, cells were washed with phosphate buffer saline (PBS) solution and then detached from the microplates (as in Section 3.2.1) and placed in centrifuge tubes and centrifuged (5 min, 3000 rpm, bench micro-centrifuge). After eliminating the supernatant, cells were washed in PBS solution through another centrifuge cycle. Then cells were divided before being incubated with the specific markers to assess oxidative stress markers and cell apoptosis/necrosis.
(§6) Mitochondrial membrane potential was analysed using JC-1 probe following the procedures as described by the manufacturer. Caco-2 and HepG2 cells suspended in PBS were centrifuged (5 min, 3000 rpm, bench micro-centrifuge), the supernatant was removed and 200 μL of JC-1 solution (2 μM; diluted in FBS-free culture media) was added to each sample. The samples were incubated for 20 min at 37 °C (in a CO2 incubator) and then analysed by flow cytometry. Negative control, non-exposed, and positive control cells exposed to the protonophore FCCP (5 μM; carbonyl cyanide p-trifluoromethoxyphenylhydrazone) were performed in each set of experiments.

HepG2 cells [6] = settings: 24 h; for HepG2 FL2/FL1 ratio: mean ± SD
Source text: as §3, §4, §5, §6

Caco-2 cells [7] = experiment: Literature: Caco-2 cell viability; type: cell-based, human; settings: Caco-2, 24 h, ref [34] value vs Table 1
Caco-2 cells [8] = settings: Caco-2, 24 h, ref [34], cited from earlier work
[9] = ref [47],[48],[49],[50]; cited from earlier work
[10] = ref [47],[48],[49],[50]; cited from earlier work; remark: listed apart in the source

C=CCOC(Cn1ccnc1)c1ccc(Cl)cc1Cl (stereo not shown) [Imazalil, imazalil]
increase in ROS content compared with control (Caco-2 cells [1]; Caco-2, 75 μM): 2.40 fold | increase in ROS content compared with control (Caco-2 cells [1]; Caco-2, 250 μM): 6.5 fold | increase in ROS content compared with control (HepG2 cells [2]): 4.56 fold | increase in GSH content vs control (Caco-2 cells [3]; Caco-2, 250 μM, 24 h): 1.59 fold | change in GSH content vs control (in words) (Caco-2 cells [3]; Caco-2, 24 h, tested concentrations): dose-dependent increase in GSH content | increase in GSH content vs control (HepG2 cells [4]; HepG2, 75 μM, 24 h): 1.97 fold | change in GSH content vs control (in words) (HepG2 cells [4]; HepG2, 24 h, tested concentrations): dose-dependent increase in GSH content | FL2/FL1 ratio reduction (% of control) (Caco-2 cells [5]; Caco-2, 50 μM, 24 h): 30.83±9.05 % of control | Caco-2 FL2/FL1 ratio (Caco-2 cells [5]; Caco-2, 50 μM, 24 h): 0.55±0.02 | FL2/FL1 ratio reduced, relative to negative control (Caco-2 cells [5]; Caco-2, 75 μM, 24 h): 1.54 times | FL2/FL1 ratio reduction (% of control) (Caco-2 cells [5]; Caco-2, 75 μM, 24 h): 34.30±6.61 % of control | Caco-2 FL2/FL1 ratio (Caco-2 cells [5]; Caco-2, 75 μM, 24 h): 0.52±0.03 | FL2/FL1 ratio reduction (% of control) (Caco-2 cells [5]; Caco-2, 75 μM, 24 h, listed as IMZ): ~ 34 % of control | FL2/FL1 ratio reduction (% of control) (Caco-2 cells [5]; Caco-2, 250 μM, 24 h): 96.08±0.47 % of control | Caco-2 FL2/FL1 ratio (Caco-2 cells [5]; Caco-2, 250 μM, 24 h): 0.03±0.01 | change in mitochondrial membrane potential (in words) (Caco-2 cells [5]; Caco-2, 24 h, tested concentrations, listed as IMZ): induced high changes in Caco-2 MMP | FL2/FL1 ratio reduction (% of control) (HepG2 cells [6]; HepG2, 25 μM): 56.22±16.07 % of control | HepG2 FL2/FL1 ratio (HepG2 cells [6]; HepG2, 25 μM): 0.10±0.03 | FL2/FL1 ratio reduction (% of control) (HepG2 cells [6]; HepG2, 50 μM): 57.15±8.10 % of control | HepG2 FL2/FL1 ratio (HepG2 cells [6]; HepG2, 50 μM): 0.10±0.02 | FL2/FL1 ratio reduced, relative to negative control (HepG2 cells [6]; HepG2, 75 μM): 3.38 times | FL2/FL1 ratio reduction (% of control) (HepG2 cells [6]; HepG2, 75 μM): 72.95±0.28 % of control | HepG2 FL2/FL1 ratio (HepG2 cells [6]; HepG2, 75 μM): 0.06±0.01 | FL2/FL1 ratio reduction (% of control) (HepG2 cells [6]; HepG2, 75 μM, listed as IMZ): ~ 73 % of control | literature IC50 lower than the IC50 here reported (Caco-2 cells [7]): 2.53 fold | IC50 (Caco-2 cells [8]; converted value, read-out: IC50 (cytotoxicity)): ~100 µM | IC50 (cytotoxicity) (Caco-2 cells [8]): 30 µg/mL (≈ 101 µM) | Partition Coefficient n-octanol/water (Log Pow) [9]: 4.56 | Water solubility [9]: 1400 µg/mL | H-bond (donor count) [10]: 0 | H-donor (acceptor count) [10]: 2
